Consider 2 compounds from US4050989A, “Process of preparing desacyl-pepsidine with bacillus pumilus” (Eisai Co., Ltd., priority 1974, dated 1977).

In one series the target is pepsin (Sus scrofa, UniProt P00791). Briefly: Pepsin-inhibitory activity (method of Murao and Satoi). The class given is biochemical. The method, then:
viii. Pepsin-inhibitory activity: Pepsin-inhibitory activity of DA-pepsidine was determined using the method reported by S. Murao and S. Satoi in Agr. Biol. Chem. Japan 34 (8) 1265 - 7 (1970). […] While, that of pepsidine C is 0.86 μg.

Another series can be described thus: Solubility in solvents. The format is physicochemical.

Chain of pepsin (P00791 60-385): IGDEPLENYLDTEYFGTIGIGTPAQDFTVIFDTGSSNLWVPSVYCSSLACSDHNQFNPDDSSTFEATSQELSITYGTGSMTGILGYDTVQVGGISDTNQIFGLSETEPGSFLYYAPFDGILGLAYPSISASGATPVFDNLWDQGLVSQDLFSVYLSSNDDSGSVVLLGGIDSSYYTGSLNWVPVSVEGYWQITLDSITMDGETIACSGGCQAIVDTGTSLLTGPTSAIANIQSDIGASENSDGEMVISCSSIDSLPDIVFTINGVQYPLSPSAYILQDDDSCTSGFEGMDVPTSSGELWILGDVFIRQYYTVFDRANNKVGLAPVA

On to `CC(=O)N[C@H](C(=O)N[C@H](C(=O)NC(CC(C)C)C(O)CC(=O)N[C@@H](C)C(=O)NC(CC(C)C)C(O)CC(=O)O)C(C)C)C(C)C` (some centres unmarked) [pepsidine C, reference compound], for which the “amount which gives 50% inhibition against 100 μg of pepsin” value at pepsin was 0.86 µg.

Take `CC(C)CC(NC(=O)[C@H](C)NC(=O)CC(O)C(CC(C)C)NC(=O)[C@@H](NC(=O)[C@@H](N)C(C)C)C(C)C)C(O)CC(=O)O` (some centres unmarked) [DA-pepsidine, valyl-valyl-4-amino-3-hydroxy-6-methyl-heptanoyl alanyl-4-amino-3-hydroxy-6-methyl-heptanoic acid]: the “amount which gives 50% inhibition against 100 μg of pepsin” value on pepsin was found to be 0.82 µg. Besides, the Solubility entry was “Easily soluble” in the series “Solubility in solvents” (in acetic acid and methanol); “slightly soluble” in “Solubility in solvents” (in acetone and ethylether); “soluble” in “Solubility in solvents” (in ethanol, n-butanol and pyridine).
